Measured values taken from ChEMBL document CHEMBL4715777, “Synthesis and topoisomerases inhibitory activity of heteroaromatic chalcones” (Bioorg Med Chem, 2016).
Structures can show the parent of a compound that is named as a salt.

Columns and labels:
[1] = target: DNA topoisomerase 2-alpha (Homo sapiens) (UniProt P11388); experiment: Inhibition of human DNA topoisomerase 2alpha assessed as decrease in relaxation of supercoiled pBR322 plasmid DNA at 100 uM using supercoiled pBR322 plasmid DNA as substrate incubated for 30 mins in presence of ATP by ethidium bromide staining-based UV imaging analysis relative to control
MDA-MB-231 = experiment: Cytotoxicity against human MDA-MB-231 cells assessed as cell growth inhibition measured after 2 days by cell counting kit-8 assay; assay type: functional, cell-based; details: MDA-MB-231, 48 h
T47D = experiment: Cytotoxicity against human T47D cells assessed as cell growth inhibition measured after 2 days by cell counting kit-8 assay; assay type: functional, cell-based; details: 48 h
[2] = target: T1, DNA topoisomerase 1 (Homo sapiens) (UniProt P11387); experiment: (§1) Inhibition of recombinant human DNA topoisomerase 1 expressed in baculovirus expression system assessed as decrease in relaxation of supercoiled pBR322 plasmid DNA at 100 uM using supercoiled pBR322 plasmid DNA as substrate incubated for 30 mins by ethidium bromide staining-based UV imaging analysis relative to control
T1 sequence (whole entry): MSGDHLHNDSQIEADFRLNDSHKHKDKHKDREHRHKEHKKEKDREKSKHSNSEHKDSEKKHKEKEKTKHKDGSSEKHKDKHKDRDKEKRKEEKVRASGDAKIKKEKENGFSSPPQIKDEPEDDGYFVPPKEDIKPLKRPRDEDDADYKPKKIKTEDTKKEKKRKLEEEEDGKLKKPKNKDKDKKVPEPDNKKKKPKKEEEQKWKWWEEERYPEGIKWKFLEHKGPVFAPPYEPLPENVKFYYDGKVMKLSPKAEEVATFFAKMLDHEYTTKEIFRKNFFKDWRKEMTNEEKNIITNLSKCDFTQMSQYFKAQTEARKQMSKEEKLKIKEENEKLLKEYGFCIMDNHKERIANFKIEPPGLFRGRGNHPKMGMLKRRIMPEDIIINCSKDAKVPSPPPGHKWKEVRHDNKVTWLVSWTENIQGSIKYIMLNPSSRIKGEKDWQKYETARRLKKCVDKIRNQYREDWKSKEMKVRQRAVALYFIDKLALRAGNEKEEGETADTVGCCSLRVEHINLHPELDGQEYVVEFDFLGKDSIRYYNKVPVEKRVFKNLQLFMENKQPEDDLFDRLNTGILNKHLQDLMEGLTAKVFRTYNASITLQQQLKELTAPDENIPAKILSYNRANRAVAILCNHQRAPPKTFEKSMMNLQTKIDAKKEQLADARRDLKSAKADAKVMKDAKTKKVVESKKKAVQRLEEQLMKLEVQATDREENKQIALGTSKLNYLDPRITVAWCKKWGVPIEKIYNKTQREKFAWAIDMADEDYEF

MDA-MB-468 = experiment: Cytotoxicity against human MDA-MB-468 cells assessed as cell growth inhibition measured after 2 days by cell counting kit-8 assay; assay type: functional, cell-based; details: MDA-MB-468, 48 h
[3] = target: T1, DNA topoisomerase 1 (Homo sapiens); experiment: as §1, with “20” for “100”
[4] = target: DNA topoisomerase 2-alpha (Homo sapiens) (UniProt P11388); experiment: Inhibition of human DNA topoisomerase 2alpha assessed as decrease in relaxation of supercoiled pBR322 plasmid DNA at 20 uM using supercoiled pBR322 plasmid DNA as substrate incubated for 30 mins in presence of ATP by ethidium bromide staining-based UV imaging analysis relative to control

Sequence of DNA topoisomerase 2-alpha (Homo sapiens) (P11388 whole entry): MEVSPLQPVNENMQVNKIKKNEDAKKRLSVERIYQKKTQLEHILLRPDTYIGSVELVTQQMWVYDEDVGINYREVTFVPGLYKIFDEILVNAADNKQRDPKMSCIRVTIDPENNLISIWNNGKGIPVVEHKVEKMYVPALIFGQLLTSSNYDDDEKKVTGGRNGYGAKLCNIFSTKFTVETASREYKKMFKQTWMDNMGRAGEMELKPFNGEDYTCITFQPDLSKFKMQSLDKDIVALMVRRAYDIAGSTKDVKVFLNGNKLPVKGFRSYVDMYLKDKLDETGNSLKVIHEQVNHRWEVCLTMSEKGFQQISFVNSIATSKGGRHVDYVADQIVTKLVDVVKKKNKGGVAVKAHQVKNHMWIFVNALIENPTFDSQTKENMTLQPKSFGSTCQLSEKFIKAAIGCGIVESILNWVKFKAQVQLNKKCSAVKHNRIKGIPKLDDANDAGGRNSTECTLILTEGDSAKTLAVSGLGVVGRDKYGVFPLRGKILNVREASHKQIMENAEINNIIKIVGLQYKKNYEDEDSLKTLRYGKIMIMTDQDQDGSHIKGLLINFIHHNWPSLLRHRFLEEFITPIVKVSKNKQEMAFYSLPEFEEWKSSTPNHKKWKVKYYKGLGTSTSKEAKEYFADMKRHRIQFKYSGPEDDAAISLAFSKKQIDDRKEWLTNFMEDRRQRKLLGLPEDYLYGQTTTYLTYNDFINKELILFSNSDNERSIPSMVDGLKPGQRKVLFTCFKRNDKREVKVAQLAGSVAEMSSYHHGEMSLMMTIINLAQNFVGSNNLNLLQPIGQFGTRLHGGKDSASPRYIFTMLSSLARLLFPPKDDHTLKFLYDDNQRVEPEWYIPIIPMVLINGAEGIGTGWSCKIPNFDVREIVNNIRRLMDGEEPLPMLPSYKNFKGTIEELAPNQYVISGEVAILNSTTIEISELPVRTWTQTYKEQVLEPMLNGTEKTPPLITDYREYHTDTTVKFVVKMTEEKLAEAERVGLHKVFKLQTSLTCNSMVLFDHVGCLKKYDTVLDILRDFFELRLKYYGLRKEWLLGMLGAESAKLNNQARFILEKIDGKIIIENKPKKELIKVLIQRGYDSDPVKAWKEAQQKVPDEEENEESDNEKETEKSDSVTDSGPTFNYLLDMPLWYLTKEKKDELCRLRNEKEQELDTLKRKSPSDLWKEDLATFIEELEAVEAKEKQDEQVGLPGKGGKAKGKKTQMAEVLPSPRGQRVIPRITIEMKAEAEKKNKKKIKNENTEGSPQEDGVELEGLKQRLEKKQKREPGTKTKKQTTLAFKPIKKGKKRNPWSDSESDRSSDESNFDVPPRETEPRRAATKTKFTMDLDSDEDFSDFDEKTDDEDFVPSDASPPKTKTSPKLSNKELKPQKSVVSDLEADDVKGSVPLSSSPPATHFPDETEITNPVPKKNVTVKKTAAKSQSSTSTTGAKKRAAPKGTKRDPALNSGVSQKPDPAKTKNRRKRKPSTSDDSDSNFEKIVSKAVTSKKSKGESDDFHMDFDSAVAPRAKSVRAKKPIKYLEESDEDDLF

| Compound | inhibition [1] [%] | IC50 (MDA-MB-231) [µM] | IC50 (T47D) [µM] | inhibition [2] [%] | IC50 (MDA-MB-468) [µM] | inhibition [3] [%] | inhibition [4] [%] |
| --- | --- | --- | --- | --- | --- | --- | --- |
| O=C(/C=C/c1cccs1)c1cccc(OCC2CS2)c1 (centres undefined) | 3.7 | 19.9 | 10.6 | 0 | 6.98 | – | – |
| O=C(/C=C/c1cccs1)c1ccccc1OCC1CO1 (centres undefined) | 0.7 | 17.9 | 17.7 | 11.1 | 7.71 | – | – |
| O=C(/C=C/c1cccs1)c1ccccc1OCC1CS1 (centres undefined) | 0.4 | 17.9 | 7.01 | 0.4 | 4.35 | – | – |
| O=C(/C=C/c1ccco1)c1ccccc1OCC1CS1 (centres undefined) | 95.4 | 32.2 | 6.61 | 61.2 | 8.26 | 6.4 | 30.6 |
| O=C(/C=C/c1ccoc1)c1ccc(OCC2CO2)cc1 (centres undefined) | 0.3 | 26.2 | 20.6 | 5.6 | 16.5 | – | – |
| O=C(/C=C/c1ccco1)c1cccc(OCC2CS2)c1 (centres undefined) | 90.4 | 28.9 | 10.4 | 75.4 | 7.23 | 1.3 | 29.8 |
| O=C(/C=C/c1ccc(OCC(O)CCl)cc1)c1ccco1 (centres undefined) | 0 | > 50 | > 50 | 1.8 | 9.53 | – | – |
| O=C(/C=C/c1ccsc1)c1ccc(OCC2CO2)cc1 (centres undefined) | 2.7 | 11.1 | 10.6 | 46.3 | 10.8 | 0 | – |
| O=C(/C=C/c1ccsc1)c1ccc(OCC2CS2)cc1 (centres undefined) | 0 | 50 | 9.32 | 100 | 23.8 | 0 | – |
| O=C(/C=C/c1ccco1)c1cccc(OCC2CO2)c1 (centres undefined) | 67.6 | 27.8 | 22.7 | 28.5 | 37.3 | – | 0.3 |
| O=C(/C=C/c1ccc(OCC(O)CCl)cc1)c1cccs1 (centres undefined) | 3.7 | 30.3 | 13 | 4.3 | 7.75 | – | – |
| O=C(/C=C/c1ccc(OCC2CO2)cc1)c1cccs1 (centres undefined) | 0 | 13.9 | 10.6 | 34.1 | 6.3 | 15.6 | – |
| O=C(/C=C/c1cccs1)c1ccc(OCC2CO2)cc1 (centres undefined) | 0.6 | 28.3 | 17.8 | 0 | 17.2 | – | – |
| COc1cc([C@@H]2c3cc4c(cc3[C@@H](O[C@@H]3O[C@@H]5CO[C@@H](C)O[C@H]5[C@H](O)[C@H]3O)[C@H]3COC(=O)[C@H]23)OCO4)cc(OC)c1O [ETOPOSIDE] | – | 9.13 | 1.96 | < 30 | 0.86 | – | – |
| O=C(/C=C/c1cccs1)c1cccc(OCC2CO2)c1 (centres undefined) | 3.9 | 15.4 | 14.6 | 2.7 | 16.3 | – | – |
| O=C(/C=C/c1ccco1)c1ccccc1OCC1CO1 (centres undefined) | 82.3 | 28.7 | 19.4 | 36.8 | 48.3 | 24.2 | 0 |
| O=C(/C=C/c1cccs1)c1ccc(OCC2CS2)cc1 (centres undefined) | 0 | 16.7 | 11.1 | 14.5 | 5.27 | – | – |
| O=C(/C=C/c1ccc(OCC2CS2)cc1)c1cccs1 (centres undefined) | 0 | 17.3 | 3.83 | 5.1 | 6.14 | – | – |
| CC[C@@]1(O)C(=O)OCc2c1cc1n(c2=O)Cc2cc3ccccc3nc2-1 [CAMPTOTHECIN] | < 30 | 8.83 | 3.67 | – | 1.71 | – | – |
| O=C(/C=C/c1ccco1)c1ccc(OCC2CS2)cc1 (centres undefined) | 94.5 | 18 | 9.44 | 63.8 | 4.32 | 0 | 24.7 |
| O=C(/C=C/c1ccoc1)c1ccc(OCC2CS2)cc1 (centres undefined) | 0 | 19.3 | 12.3 | 0 | 5.3 | – | – |
| COc1cccc2c1C(=O)c1c(O)c3c(c(O)c1C2=O)C[C@@](O)(C(=O)CO)C[C@@H]3O[C@H]1C[C@H](N)[C@H](O)[C@H](C)O1 [DOXORUBICIN HYDROCHLORIDE] | – | 3.6 | 2.18 | – | 2.15 | – | – |
| O=C(/C=C/c1ccc(OCC2CS2)cc1)c1ccco1 (centres undefined) | 0 | 24.1 | 10.6 | 3.3 | 8.35 | – | – |
| O=C(/C=C/c1ccc(OCC2CO2)cc1)c1ccco1 (centres undefined) | 0 | 22.2 | 11.2 | 0 | 17.3 | – | – |
| O=C(/C=C/c1ccco1)c1ccc(OCC2CO2)cc1 (centres undefined) | 6.6 | 47.1 | 17.7 | 36.8 | 48.9 | 0 | – |
